The source of these data is patent publication US20100183580A1, “TREATMENT OF PIGS FOR REDUCING THE FEED CONVERSION RATIO OR INCREASING THE GROWTH RATE” (priority 2007, published 2010).

Several values for one entry are separate records, joined by “and”; a condition that tells them apart may be missing. Equal entries are not always repeated. Where two headings read alike, the source gives them in different places.

In data set [1] the test system is broilers. The following applies: diet supplemented with pangamic acid; cited from earlier work.
Data set [2] has as its system growing broilers. Conditions: DMG supplementation; cited from earlier work.
Data set [3] deals with weaned piglets (pigs of Rattlerow Seghers origin). The class given is in vivo. Details: dG / End BW: unit not given here. From the text:
The setup of the experiments described below is to assess the influence of DMG on the performance in model species for pigs: mortality, feed conversion ratio (FCR), daily growth (dG), body weight (BW).
To examine all the effects associated with the supplementation of dimethylglycine (DMG) in pig feed, a test was setup with pigs of Rattlerow Seghers origin as model species. In this feeding trial 60 weaned piglets of even sex distribution were kept for 42 days. Teeth of piglets were clipped and male piglets were neutered during the first week after birth. At the beginning of the test the piglets were ad random divided per sex in 20 pens with 3 piglets per pen, reckoning even weight distribution at pen level. The piglets were fed with one type of feed from the first day on till the end of the test period. The type of feed was attributed on a random basis to the different housings. The control feed was based on a commercial piglet feed enriched with 5% corn oil to increase the oxidative stress in the feed. The feed had the following composition: 91% dry matter, 5% ash, 18% crude protein, 8% crude fat, 4% crude fibre and 56% other carbohydrate. It has a (calculated) metabolizable energy value of about 13.9 MJ/kg.
In the second type of feed 500mg of DMG was added per kilogram to the same composition of feed as described for the control feed. Over the entire test period, the pigs consumed on average about 290 mg DMG per piglet per day. The housing of the piglets consisted out of slatted floor pig pens of 1.05 m×1.7 m with a total surface of 1.785 m^2. Feed and water were ad libitum available at all times.
Each piglet was weighted after overnight fasts at 4 times, namely at days 0, 14, 29 and 42. The daily growth for the total growth period (dG) as well as daily growth during the three periods (between the start and the fourteenth day (dGI), between the fourteenth and the twenty-ninth day (dGII) and between the twenty-ninth day and the forty-second day (dGIII)) was calculated for each animal. The feed intake for each pen was also measured during these periods. The feed conversion ratio was calculated for each of the pens for both the growth period excluding the first two weeks (FRCII+III) and for the total growth period (FRC). This feed conversion ratio was calculated by dividing the total feed consumption by the weight gain of the piglets during the entire experiment.

For data set [4], the system named is male grower-finisher pigs exposed to mycoplasmal infections. Conditions: cited from earlier work.

Turning to `CN(C)CC(=O)OC[C@@H](O)[C@@H](O)[C@H](O)[C@@H](O)C(=O)O` [pangamic acid, 6-O-(dimethylaminoacetyl)-D-gluconic acid], in data set [1], the body weight gain entry was “reduction” and the feed conversion rate entry is reported as “not affected”.

In the case of `CN(C)CC(=O)O` [DMG, N,N-dimethylglycine], the body weight gain result in data set [2] is listed as “not an important impact”. In addition, the feed conversion rate entry in data set [2] is “decreased”. Also, the “End BW” value stood at 23.4 ± 0.86 in data set [3] (Barrow, DMG 500 ppm, mean ± SD) and 19.3 ± 1.64 in data set [3] (Gilt, DMG 500 ppm, mean ± SD). Moreover, the dG in data set [3] (Barrow, DMG 500 ppm, mean ± SD) was 356 ± 20; in data set [3] (Gilt, DMG 500 ppm, mean ± SD), 271 ± 39. Further, the “FCRII + III” value in data set [3] (Barrow, excluding the first two weeks, DMG 500 ppm, mean ± SD) is on record as 1.71 ± 0.12; in data set [3] (Gilt, excluding the first two weeks, DMG 500 ppm, mean ± SD), 1.74 ± 0.09; in data set [3] (barrows and gilts, growth period excluding the first two weeks, DMG 500 mg/kg feed, mean ± SD), 1.72 ± 0.10. Also, the “FCRII + III, DMG-effect” value in data set [3] (Barrow, excluding the first two weeks, vs control) is −6.2%; in data set [3] (Gilt, excluding the first two weeks, vs control), −8.9%; in data set [3] (barrows and gilts, excluding the first two weeks, vs control), −7.6%. The FCR in data set [3] (Barrow, total growth period, DMG 500 ppm, mean ± SD) was determined as 1.80 ± 0.09; in data set [3] (Gilt, total growth period, DMG 500 ppm, mean ± SD) it was 1.93 ± 0.16. The “FCR, DMG-effect” value in data set [3] (Barrow, total growth period, vs control) is given as −8.4%; in data set [3] (Gilt, total growth period, vs control), −3.6%; in data set [3] (barrows and gilts, total growth period, vs control), −5.9%. The “End BW, DMG-effect” value in data set [3] (Gilt, vs control) is recorded as −7.0%. The “dG, DMG-effect” value in data set [3] (Gilt, vs control) is −11.0%. The molecule further returned a dGI in data set [3] (barrows and gilts, daily growth day 0-14, DMG 500 mg/kg feed, mean ± SD) of 94 ± 58 g/day. In addition, the dGII in data set [3] (barrows and gilts, daily growth day 14-29, DMG 500 mg/kg feed, mean ± SD) is 365 ± 65 g/day. This molecule returned a dGIII in data set [3] (barrows and gilts, daily growth day 29-42, DMG 500 mg/kg feed, mean ± SD) of 491 ± 118 g/day. The “dGI, DMG-effect” value in data set [3] (barrows and gilts, day 0-14, vs control) was −7.0%. For the same molecule, in data set [3] (barrows and gilts, day 14-29, vs control), the “dGII, DMG-effect” value is on record as “+8.1%”. Besides, the “dGIII, DMG-effect” value in data set [3] (barrows and gilts, day 29-42, vs control) is recorded as “+2.1%”. Moreover, in data set [3] (barrows and gilts, day 42, DMG 500 mg/kg feed, mean ± SD), the End body weight worked out at 21.4 ± 2.46 kg. Also, the “improvement in feed conversion ratio (lower FCR)” value worked out at 7.6% in data set [3] (barrows and gilts, growth period excluding the first two weeks, vs control, given unsigned); 5.9% in data set [3] (barrows and gilts, total growth period, vs control, given unsigned); 8.4% in data set [3] (barrows, total growth period, vs control, given unsigned). In addition, in data set [3] (barrows and gilts, total growth period, DMG 500 mg/kg feed, mean ± SD), the “FCR (feed conversion ratio)” value is 1.87 and 1.87 ± 0.14. Besides, in data set [3] (barrows and gilts, total period day 0-42, DMG 500 mg/kg feed, mean ± SD), the “Daily growth (dG)” value came to 314 ± 53 g/day. Moreover, the “improvement in feed conversion ratio (FCRII+III, lower)” value in data set [3] (gilts, growth period excluding the first two weeks, vs control, given unsigned) is 8.9%. Further, the “improvement in feed efficiency (lower FCR)” value in data set [3] (gilts, total growth period, vs control, only numerically, given unsigned) worked out at 3.6%. The “health of the animals during the experiment (clinical signs of disease)” value in data set [3] (pig, in vivo) is on record as “remained healthy”.

With `C[N+](C)(C)CC(=O)O` [betaine], in data set [4] (0.125% betaine in feed), the “lung area damaged by mycoplasmal infection” value is given as “significant reduction”. In data set [4] (growing pigs exposed to mycoplasmal infections), the “growth rate and other performance characteristics, such as the feed conversion ratio” value is “improvements”.
